According to patent publication US9546196B2, “Compositions and methods of treatment of cancers” (The University of Toledo, priority 2009, dated 2017):

Legend:
[1] = test system: Cos monkey kidney cancer cells; assay: Cos cell density with peptide; format: cell-based; conditions: even at 100 μM; 2 or 4 days; no endogenous sGCα1
Procedure: FIG. 17B: Cos monkey kidney cancer cells were grown for 2 or 4 days in the presence of increasing concentration of Peptide A-8R [SEQ ID NO: 1] or vehicle and then cell density was measured.

Caspase 3/7 = Caspase 3/7 activity in LNCaP cells; format: cell-based; conditions: 10 mM Peptide A-8R
Procedure: FIG. 18A: LNCaP cells were grown for 1-24 hrs in the presence of vehicle, […] Peptide A-8R [SEQ ID NO: 1], or […] Etoposide and then measured for Caspase 3/7 activity.
To determine if the cytotoxicity of Peptide A-8R [SEQ ID NO: 1] is through apoptosis, LNCaP cells were monitored for Caspase 3/7 activity. […] Thus, Peptide A-8R [SEQ ID NO: 1] was able to induce Caspase 3/7 activity much faster than the well-studied apoptosis-inducing drug Etoposide. To confirm that the Peptide was killing cells via apoptosis, the inventors used the pan-caspase inhibitor Z-VAD-FMK.

C81 xenograft tumors = C81 xenograft tumors in mice, intratumoral injection; format: in vivo
Procedure: FIGS. 28A-C: Peptide A-8R [SEQ ID NO: 1] inhibits the growth of C81 prostate xenograft tumors. (A) C81 (hormone-independent LNCaP) xenograft tumors were grown in nude mice to a size of about 200 cubic mm and then treated every other day with five intratumoral injections of either Peptide A-8R [SEQ ID NO: 1] ([…] of animal) or vehicle (DMSO) for seven days, after which the tumors were left untreated and allowed to grow for an additional 3 weeks before the tumors were excised. Each point represents the average tumor size of three animals plus or minus the standard deviations. The arrow represents the last treatment of Peptide A-8R [SEQ ID NO: 1] or vehicle. There is a statistical significance (P<0.0004) of Peptide A activity, relative to vehicle, for each treatment day. […] Bar graphs represent averages of each set of three tumors plus standard deviations. Asterisks indicate statistical significance (P<0.02). (C) Image showing the strong anti-tumor effect of Peptide A-8R [SEQ ID NO: 1], as compared to vehicle control, in one animal.
This experiment was then repeated using hormone-refractory C81 cells. 2×10^6 C81 cells in 50 μL of growth medium was mixed with 50 μL Matrigel (BD Biosciences) and injected into both flanks of 4-6-week old SCID male mice. When tumor sizes reached 200 mm^3, 50 μL of Peptide A-8R (40 mg Peptide A-8R/kg of animal) [“A-8R” disclosed as SEQ ID NO: 1] or vehicle (DMSO) was directly injected into the tumors every other day. Injections were stopped after 5 times and tumors were measured every 3 days. Mice were euthanized after 3 weeks and tumors were excised. All procedures were approved by the University of Toledo, Division of Lab Animal Recourses (DLAR). Protein extracts were prepared by boiling the tumor tissue in 3×SDS buffer, and evaluated by SDS-PAGE gel. The procedure was carried out in strict accordance with the recommendations in the Guide for the Care and Use of Laboratory Animals of the National Institutes of Health. […] During the experiments, all animals were monitored daily for morbidity and all efforts were made to minimize suffering. […]

## Ac-TFCKAFPFHIIRRRRRRRR-OH [Peptide A-8R]
[1]
  effect on Cos cells: little to no effect
Caspase 3/7; after 8 hrs
  increase in caspase activity: ~4 fold
Caspase 3/7; after 24 hrs
  caspase activity: diminished to Vehicle levels
Caspase 3/7; by 1 hour
  increase in caspase activity: 2 fold
C81 xenograft tumors; 40 mg/kg intratumoral every other day, five injections
  tumor growth during treatment: stopped tumor growth and actually caused some tumor regression
C81 xenograft tumors; one mouse having two tumors
  tumor size versus vehicle-treated tumor in the same mouse: markedly smaller
C81 xenograft tumors; three weeks after treatment was stopped
  tumor growth after peptide treatment was stopped: did not grow at all
